Among the data in the supplement of paper PMC12137928 are IC50 cell viability values, retold here.

The assay concerns HCT116. The following applies: 72 h. The gist of the method:
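HCT116 cells were plated at 250 per well in 1536-well plates and allowed 5 h to attach. CellTiter-Glo luminescence was normalized to vehicle as 0% and positive control as -100%, followed by pattern correction. Four-parameter Hill fits provided IC50 and maximal efficacy.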

Counter-ions that a name gives are not always drawn.

Take `CN1[C@@H]2CC[C@H]1C[C@@H](NC(=O)n1c(=O)[nH]c3ccccc31)C2` [Itasetron]: the IC50 cell viability was above 45.8 µM (ICRF193 0 nM) and above 45.8 µM (ICRF193 200 nM).

In the case of `Nc1ncn([C@H]2C[C@H](O)[C@@H](CO)O2)c(=O)n1` [Decitabine], the IC50 cell viability runs as follows: (ICRF193 0 nM) above 45.8 µM; (ICRF193 200 nM) above 45.8 µM.

For the compound `O=P(O)(O)OP(=O)(O)O` [Pyrophosphoric acid], the IC50 cell viability by setting is: (ICRF193 0 nM) above 45.8 µM; (ICRF193 200 nM) above 45.8 µM.

In the case of `O=C(O)c1cc(/N=N/c2ccc(O)c(C(=O)O)c2)ccc1O` [Olsalazine sodium], the IC50 cell viability is, setting by setting: (ICRF193 0 nM) above 45.8 µM; (ICRF193 200 nM) above 45.8 µM.

With `CCOC(=O)NNc1nncc2ccccc12` [Todralazine hydrochloride], the IC50 cell viability runs as follows: (ICRF193 0 nM) above 45.8 µM; (ICRF193 200 nM) above 45.8 µM.

Compound `CC[C@@H]([C@H](C)O)n1ncn(-c2ccc(N3CCN(c4ccc(OC[C@@H]5CO[C@@](Cn6cncn6)(c6ccc(F)cc6F)C5)cc4)CC3)cc2)c1=O` [Posaconazole] showed an IC50 cell viability (ICRF193 0 nM) above 45.8 µM and an IC50 cell viability (ICRF193 200 nM) above 45.8 µM.

With `O=[N+]([O-])c1cc([As](=O)(O)O)ccc1O` [4-Hydroxy-3-nitrophenylarsonic acid], the IC50 cell viability reads like this: (ICRF193 0 nM) above 45.8 µM; (ICRF193 200 nM) above 45.8 µM.

With `CCCCN(CCCC)CCCOC(=O)c1ccc(N)cc1` [Butacaine], the IC50 cell viability by setting is: (ICRF193 0 nM) above 45.8 µM; (ICRF193 200 nM) above 45.8 µM.

Compound `CCOc1cc(CC(=O)N[C@@H](CC(C)C)c2ccccc2N2CCCCC2)ccc1C(=O)O` [Repaglinide] came in with an IC50 cell viability (ICRF193 0 nM) above 45.8 µM and an IC50 cell viability (ICRF193 200 nM) above 45.8 µM.

Turning to `CCOC(=O)c1cnc2cc(OCC(C)C)c(OCC(C)C)cc2c1O` [Buquinolate], the IC50 cell viability (ICRF193 0 nM) was above 45.8 µM and the IC50 cell viability (ICRF193 200 nM) was above 45.8 µM.

On to `CCOC(=O)c1ccc(N)cc1` [Benzocaine], for which the IC50 cell viability by setting is: (ICRF193 0 nM) above 45.8 µM; (ICRF193 200 nM) above 45.8 µM.

In turn, `NS(=O)(=O)c1cc(C(=O)O)c(NCc2ccco2)cc1Cl` [Furosemide] registered an IC50 cell viability (ICRF193 0 nM) above 45.8 µM and an IC50 cell viability (ICRF193 200 nM) above 45.8 µM.

`C[C@]12CCC(=O)C=C1CC[C@@H]1[C@@H]2CC[C@]2(C)C(=O)CC[C@@H]12` [4-Androstene-3,17-dione]: the IC50 cell viability reads like this: (ICRF193 0 nM) above 45.8 µM; (ICRF193 200 nM) above 45.8 µM.

Compound `CC(=O)O[C@]1(C(C)=O)CC[C@H]2[C@@H]3C=C(C)C4=CC(=O)CC[C@@H]4[C@H]3CC[C@@]21C` [Nomegestrol acetate] yielded an IC50 cell viability (ICRF193 0 nM) above 45.8 µM and an IC50 cell viability (ICRF193 200 nM) above 45.8 µM.

With `CN(C)CCOC(c1ccccc1)c1ccc(Br)cc1` (centres undefined) [Bromodiphenhydramine], the IC50 cell viability is above 45.8 µM (ICRF193 0 nM) and above 45.8 µM (ICRF193 200 nM).

With `CCCCOCCOC(=O)c1cccnc1` [Nicoboxil], the IC50 cell viability is above 45.8 µM (ICRF193 0 nM) and above 45.8 µM (ICRF193 200 nM).

`CCCOc1ccc(C(=O)OCCN(CC)CC)cc1N` [Proparacaine] gave an IC50 cell viability (ICRF193 0 nM) above 45.8 µM and an IC50 cell viability (ICRF193 200 nM) above 45.8 µM.

With `CCCOC(=O)c1ccc(O)cc1` [Propyl-4-hydroxybenzoate], the IC50 cell viability runs as follows: (ICRF193 0 nM) above 45.8 µM; (ICRF193 200 nM) above 45.8 µM.

Take `Cc1ncc(COP(=O)(O)O)c(C=O)c1O` [Pyridoxal phosphate hydrate]: the IC50 cell viability by setting is: (ICRF193 0 nM) above 45.8 µM; (ICRF193 200 nM) above 45.8 µM.

For `CCC[C@@H]1C[C@@H](C(=O)N[C@@H]([C@H]2O[C@H](SC)[C@H](O)[C@@H](O)[C@H]2O)[C@H](C)Cl)N(C)C1` [Clindamycin hydrochloride], the IC50 cell viability is, setting by setting: (ICRF193 0 nM) above 45.8 µM; (ICRF193 200 nM) above 45.8 µM.

Take `OCCN1CCN(CCCN2c3ccccc3C=Cc3ccccc32)CC1` [Opipramol dihydrochloride]: the IC50 cell viability by setting is: (ICRF193 0 nM) above 45.8 µM; (ICRF193 200 nM) above 45.8 µM.

For `COC(=O)CCc1ccc(OCC(O)CNC(C)C)cc1` (centres undefined) [Esmolol hydrochloride], the IC50 cell viability runs as follows: (ICRF193 0 nM) above 45.8 µM; (ICRF193 200 nM) above 45.8 µM.

Regarding `FCOC(C(F)(F)F)C(F)(F)F` [Sevoflurane], the IC50 cell viability is, setting by setting: (ICRF193 0 nM) above 45.8 µM; (ICRF193 200 nM) above 45.8 µM.

With `CNC(C)C(O)c1ccccc1` (centres undefined) [RACEPHEDRINE HYDROCHLORIDE], the IC50 cell viability by setting is: (ICRF193 0 nM) above 45.8 µM; (ICRF193 200 nM) above 45.8 µM.

For the compound `Cc1cccc(O)c1` [m-Cresol], the IC50 cell viability reads like this: (ICRF193 0 nM) above 45.8 µM; (ICRF193 200 nM) above 45.8 µM.

As to `CC[C@]1(O)CC[C@H]2[C@@H]3CCC4=CCCC[C@@H]4[C@H]3CC[C@@]21C` [Ethylestrenol], the IC50 cell viability runs as follows: (ICRF193 0 nM) above 45.8 µM; (ICRF193 200 nM) above 45.8 µM.

As to `Cc1cccc(C)c1OCC(C)N` (centres undefined) [Mexiletene hydrochloride], the IC50 cell viability (ICRF193 0 nM) is above 45.8 µM and the IC50 cell viability (ICRF193 200 nM) was above 45.8 µM.
